# Measurements reported in publication PMC8624133, “10th Trends in Medical Mycology Held on 8 to 11 October 2021, Aberdeen, Scotland, Organized by the European Confederation of Medical Mycology (ECMM)” (Journal of Fungi, 2021).
# Non-standard residues stand in square brackets, D forms with d. Residues, ends and D or L forms follow the SMILES beside them. No end group written: not given here. pS = N[C@@H](COP(=O)(O)O)C(=O)O
# What was measured:
# [1] = system: P. insidiosum (strains CBS101555, P38, ATCC90586); assay: Radial growth assay; format: cell-based, Pythium insidiosum
# Procedure: These agriculture fungicides were initially evaluated for inhibitory effect against 3 phylogenetical distinct strains of P. insidiosum (i.e., strains CBS101555, P38, and ATCC90586) isolated from humans and animal with pythiosis in Thailand, Brazil, and United States. A radial growth assay was employed for the in vitro susceptibility analysis. […] The percentage of the colony’s radial growth of the treated organism was calculated in relation to the untreated control. The microscopic changes of the microorganisms were recorded.
# C. glabrata ATCC 2001 = assay: Broth microdilution of modified HDPs; format: cell-based, Candida glabrata; conditions: 0.19 to 50 μg/mL tested
# Description: (§1) Materials & Methods: From the Scarabaeidae family transcriptome, 14 promising HDPs were identified. Subsequently, we designed new sequences modifying the net charge, hydrophobic angle and the general composition of amino acids, among other properties, in order to improve the HDPs antifungal activity. The in vitro antifungal susceptibility of the 14 modified HDPs against Candida krusei, ATCC 6558, Candida parapsilosis ATCC 22019, Candida glabrata ATCC 2001, Candida tropicalis ATCC 750, Cryptococcus neoformans H99 and Cryptococcus gattii H0058-I-2029 isolates were evaluated by broth microdilution, with a concentration ranging from 0.19 to 50 μg/mL for all peptides.
# C. krusei ATCC 6558 = assay: Broth microdilution of modified HDPs; format: cell-based, Candida krusei; conditions: 0.19 to 50 μg/mL tested
# Description: as §1
# C. albicans ATCC 1453 = assay: Broth microdilution of modified HDPs; format: cell-based, Candida albicans; conditions: 0.19 to 50 μg/mL tested
# C. gattii H0058-I-2029 = assay: Broth microdilution of modified HDPs; format: cell-based, Cryptococcus gattii; conditions: 0.19 to 50 μg/mL tested
# Description: as §1
# [2] = system: C. parapsilosis ATCC 22019; assay: Broth microdilution of modified HDPs; format: cell-based, Candida parapsilosis; conditions: 0.19 to 50 μg/mL tested
# Description: as §1
# C. tropicalis ATCC 750 = assay: Broth microdilution of modified HDPs; format: cell-based, Candida tropicalis; conditions: 0.19 to 50 μg/mL tested
# Description: as §1
# C. neoformans H99 = assay: Broth microdilution of modified HDPs; format: cell-based, Cryptococcus neoformans; conditions: 0.19 to 50 μg/mL tested
# Description: as §1
# C. albicans SC5314 = assay: Broth microdilution of modified HDPs; format: cell-based, Candida albicans; conditions: 0.19 to 50 μg/mL tested
# C. auris [3] = assay: CLSI M27-A3 broth microdilution; format: cell-based, Candida auris; conditions: for GM MIC (≥90% reduction of visible growth): 256–16 μg/mL tested, duplicate at two times
# C. auris [4] = assay: EUCAST EDef 7.3.1 MIC and checkerboard microdilution; format: cell-based, Candida auris
# Procedure: Methods: We studied 22 C. auris isolates obtained from different clinical samples from the Hospital La Fe, Valencia, Spain (eight from blood culture, seven from oropharynx and seven from urine cultures). Candida parapsilosis ATCC 22019 and Candida krusei ATCC 6258 were used as quality controls. The minimum inhibitory concentration (MIC) was determined according to the European Committee on Antibiotic Susceptibility Testing (EUCAST) EDef 7.3.1 document. The interaction between citral and the rest of antifungal drugs was assessed by a checkerboard microdilution method. […] The in vitro interaction of the drug combinations was interpreted in terms of the fractional inhibitory concentration index (FICI) as follows: FICI < 1, synergistic; FICI equal to 1, additive; and FICI > 1, indifferent or antagonistic.
# [5] = system: nine strains of Candida spp.; assay: CLSI M27-A3 broth microdilution; format: cell-based
Compound,MIC (C. glabrata ATCC 2001),MIC (C. krusei ATCC 6558),MIC (C. albicans ATCC 1453),MIC (C. gattii H0058-I-2029),MIC [2],MIC (C. tropicalis ATCC 750),MIC (C. neoformans H99),MIC (C. albicans SC5314),other results
Cc1ccc(-c2c(Cl)nc(C#N)n2S(=O)(=O)N(C)C)cc1 [cyazofamid],–,–,–,–,–,–,–,–,MIC ([1]; Pythium insidiosum): 16 µg/mL; reduction of growth compared to the control ([1]; colony radial growth): at least 70%
KSKRWRKFEKRVKKIFEHTKEA-NH2 [Act3],1.56 µg/mL,0.78 µg/mL,>50 µg/mL,3.12 µg/mL,3.12 µg/mL,>50 µg/mL,50 µg/mL,>50 µg/mL,–
Cc1ccc(C(C)C)cc1O [carvacrol],–,–,–,–,–,–,–,–,GM MIC (≥90% reduction of visible growth) (C. auris [3]): 215.3 µg/mL
GSKRWRKFEKRVKKIFEKTKEAK-NH2 [Act6],3.12 µg/mL,0.78 µg/mL,>50 µg/mL,3.12 µg/mL,1.56 µg/mL,>50 µg/mL,50 µg/mL,>50 µg/mL,–
Cc1ccc(C(C)C)c(O)c1 [thymol],–,–,–,–,–,–,–,–,GM MIC (≥90% reduction of visible growth) (C. auris [3]): 104 µg/mL
KSKRWRKFEKRVKKIFEKTKEA-NH2 [Act1],3.12 µg/mL,1.56 µg/mL,>50 µg/mL,6.25 µg/mL,3.12 µg/mL,50 µg/mL,50 µg/mL,>50 µg/mL,–
CC(C)=CCCC(C)=CC=O (mixture of isomers) [citral],–,–,–,–,–,–,–,–,"MIC of citral in combination with anidulafungin (C. auris [4]; 21 of the 22 isolates): 3 to 128 µg/mL; MIC (C. auris [4]; Candidozyma auris, 22 clinical isolates): > 1020 µg/mL; isolates with additive effect (FICI equal to 1) (C. auris [4]; citral + fluconazole): eight; isolates with synergistic effect (FICI < 1) (C. auris [4]; citral + fluconazole): three; isolates with additive effect (FICI equal to 1) (C. auris [4]; citral + isavuconazole): seven; isolates with synergistic effect (FICI < 1) (C. auris [4]; citral + isavuconazole): seven"
KSKRWRKFEKRVKKIFEKTKEAK-NH2 [Act2],1.56 µg/mL,0.78 µg/mL,>50 µg/mL,3.12 µg/mL,1.56 µg/mL,50 µg/mL,25 µg/mL,>50 µg/mL,–
GSKRWRKFEKRVKKIFEKTKEA-NH2 [Act5],3.12 µg/mL,1.56 µg/mL,>50 µg/mL,1.56 µg/mL,3.12 µg/mL,>50 µg/mL,25 µg/mL,25 to 50 µg/mL,–
C=C(C)[C@H]1CC=C(C)CC1 [D-limonene],–,–,–,–,–,–,–,–,MICs range (C. auris [3]): 16 to 128 µg/mL; GM MIC (≥90% reduction of visible growth) (C. auris [3]): 20.39 µg/mL; selectivity index (SI) ([5]; C. glabrata LMDM 34 vs HaCat): 6; selectivity index (SI) ([5]; C. methapsilosis MUM 1512 vs HaCat): 50; selectivity index (SI) ([5]; C. orthopsilosis MUM 1713 vs HaCat): 25; selectivity index (SI) ([5]; C. tropicalis ATCC 200956 vs HaCat): 12
GSKRWRKFEKRVKKIFEHTKEA-NH2 [Act7],3.12 µg/mL,0.78 µg/mL,>50 µg/mL,3.12 µg/mL,1.56 µg/mL,>50 µg/mL,50 µg/mL,>50 µg/mL,–
GSKRWRKFEKRVKKIFEHTKEAK-NH2 [Act8],3.12 µg/mL,0.78 µg/mL,>50 µg/mL,3.12 µg/mL,1.56 µg/mL,>50 µg/mL,50 µg/mL,>50 µg/mL,–
RSKKWRKIEKRVKKIFEKTKEA-NH2 [sat122],3.12 µg/mL,1.56 µg/mL,>50 µg/mL,3.12 µg/mL,0.39 µg/mL,50 µg/mL,50 µg/mL,>50 µg/mL,–
GSKRWRKFEKRVKKIFEETKEALPVVQGVAGVAGAVGRR-NH2 [ConCec],1.56 µg/mL,0.78 µg/mL,>50 µg/mL,1.56 µg/mL,0.39 µg/mL,25 µg/mL,25 µg/mL,>50 µg/mL,–
KSKRWRKFEKRVKKIFEHTKEAK-NH2 [Act4],3.12 µg/mL,0.78 µg/mL,>50 µg/mL,1.56 µg/mL,1.56 µg/mL,50 µg/mL,50 µg/mL,>50 µg/mL,–
KSKRWRKFEKRVKKIFEKFKEAK-NH2 [Act2.2],1.56 µg/mL,0.78 µg/mL,>50 µg/mL,1.56 µg/mL,1.56 µg/mL,12.5 µg/mL,12.5 µg/mL,>50 µg/mL,–
Cc1ccc(C(C)C)cc1 [p-cymene],–,–,–,–,–,–,–,–,GM MIC (≥90% reduction of visible growth) (C. auris [3]): 215.3 µg/mL
GSKRWRKFEKRVKK-NH2 [domcec],6.25 µg/mL,3.12 µg/mL,>50 µg/mL,>50 µg/mL,3.12 µg/mL,>50 µg/mL,>50 µg/mL,>50 µg/mL,–
CC[C@H](C)[C@H](NC(=O)[C@H](CCCCN)NC(=O)[C@H](CCCCN)NC(=O)[C@@H](NC(=O)[C@H](CCCNC(=N)N)NC(=O)[C@H](CCCCN)NC(=O)[C@H](CCC(=O)O)NC(=O)[C@H](Cc1ccccc1)NC(=O)[C@H](CCCCN)NC(=O)[C@H](CCCNC(=N)N)NC(=O)[C@H](Cc1c[nH]c2ccccc12)NC(=O)[C@H](CCCNC(=N)N)NC(=O)[C@H](CCCCN)NC(=O)[C@H](COP(=O)(O)O)NC(=O)[C@@H](N)CCCCN)C(C)C)C(=O)N[C@@H](Cc1ccccc1)C(=O)N[C@@H](CCC(=O)O)C(=O)N[C@@H](CCCCN)C(=O)N[C@H](C(=O)N[C@@H](CCCCN)C(=O)N[C@@H](CCC(=O)O)C(=O)N[C@@H](C)C(=O)N[C@@H](CCCCN)C(N)=O)[C@@H](C)O [Act2.1] (H-K[pS]KRWRKFEKRVKKIFEKTKEAK-NH2),1.56 µg/mL,0.78 µg/mL,>50 µg/mL,1.56 µg/mL,1.56 µg/mL,>50 µg/mL,>50 µg/mL,>50 µg/mL,–
GSKRWRKFEKRVKKVFEHTKEA-NH2 [ox322],3.12 µg/mL,1.56 µg/mL,>50 µg/mL,3.12 µg/mL,1.56 µg/mL,>50 µg/mL,50 µg/mL,>50 µg/mL,–
